In patent US20100068184A1, “LIVING BODY HEALING ACCELERATOR” (AUREO CO., LTD., priority 2006, published 2010):

Columns and labels:
sarcoma = test: Sarcoma-implanted mice: change in tumor volume; assay type: in vivo; settings: 5-FU 20 mg/kg/day oral in drinking water (group A), vs control group
Description: The above result obviously indicates the characteristics of the treatment with an anticancer drug, and in this type of treatment, the anticancer drug can suppress growth of a tumor, but normal cells are damaged by toxicity of the anticancer drug. This negative aspect spoils the positive result of the treatment with an anticancer drug. […] The dose of 2 g/kg/day corresponds to 30 mg/kg/day in administration with respect to the solid content (1.5%).

[1] = system: leukemia-originated tumor cell P388; test: Anti-leukemia test (survival rate); assay type: in vivo, mice; settings: group A, 5-FU 2.0 mg/kg oral, 40 days after implantation
Description: The test was carried out according to the ordinary method by using mice each with the leukemia-originated tumor cell P388 implanted therein and also by comparing survival rates of the mice after the test samples were administered. Just after the tumor was implanted, each test sample was orally administered by mixing the sample in water in a bottle for drinking water and making the mice freely drink the water. […] 10 mice were used for one test sample group.

[2] = system: mouse carrying diabetes caused by streptozotocin; test: Test for accelerating normalization of a blood glucose level; assay type: in vivo, mice; settings: 200 mg/kg intraperitoneal (positive control group)
Description: The test was performed by using mice, in each of which a diabetes was induced by streptozotocin, and also by comparing blood glucose levels before and after administration of test samples. In Table 3, the “normal group” indicates a blood glucose level in the normal state where treatment with streptozotocin is not performed. On the other hand, the “negative control group” indicates a blood glucose level in a mouse in which diabetes was generated by being subjected to treatment with streptozotocin. The “positive control group” indicates a blood glucose level when tolbutamide which was an accelerator of insulin secretion (200 mg/kg) was administered to a mouse carrying diabetes caused by streptozotocin. The “test A group” and “test B group” each indicates a blood glucose level when each of the Aureobasidium culture solution (2 g/kg and 10 g/kg) was administered to a mouse carrying diabetes caused by streptozotocin. It is to be noted that each sample was intrapenitoreally administered.
FIG. 6 is plotted with the ordinate axis indicating a blood glucose level and with the abscissa axis indicating treatment performed to each group of the tested mice. A left bar in each group represents an average value of blood glucose levels before administration of the test sample, while a right bar represent an average value of blood glucose levels after administration of the test sample.

| SMILES | volume of the tumor (sarcoma) | survival rate [1] [%] | descent percentage of blood glucose level [2] [%] |
| --- | --- | --- | --- |
| O=c1[nH]cc(F)c(=O)[nH]1 [5-FU, 5-fluorouracil] | significantly restrained | 80 |  |
| CCCCNC(=O)NS(=O)(=O)c1ccc(C)cc1 [tolbutamide] |  |  | 17.4 |
